Among the test systems are A498; COLO 205; EKVX; HCC 2998; HCT-15; HOP-62; HOP-92; Hs-578T; LOX IMVI; MCF7; MDA-MB-435; Malme-3M; NCI/ADR-RES; OVCAR-4; SF-268; SF-295; SF-539; SK-MEL-28; TK-10; UACC-257.
What all share (assay): DTP human tumour cell line panel, 48 h

Data on five compounds can be found in ChEMBL document CHEMBL1201862, “PubChem BioAssay data set” (2004).

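Step 1: Grow cells in 96-well plates. Step 2: Expose to compound for 48 hours at 5 concentrations. Step 3: Interpolate endpoints linearly; if unreached, use highest concentration. Here, GI50 denotes the concentration required for 50% inhibition of growth.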 Active and inactive are the calls of the source. No stated cut-off is given here; in the data, active = GI50 up to about 1.1 µM and inactive = higher.

As usually defined, the GI50 is the concentration at which growth is held to half of that of the control. As for `CC1=C(C)SC(=C2Sc3[n-]c(=O)[nH]c(=O)c3S2)S1.CCCC[N+](CCCC)(CCCC)CCCC`, the GI50 was > 100 µM (inactive) in the assay on A498; > 100 µM (inactive) in the assay with COLO 205; > 100 µM (inactive) with EKVX; > 100 µM (inactive) in the assay with HCC 2998; > 100 µM in the assay with HCT-15; > 100 µM (inactive) with HOP-62. The GI50 was > 100 µM (inactive) in the assay on HOP-92; > 100 µM (inactive) in the assay with Hs-578T; 44.6 µM (inactive) with LOX IMVI; 42.5 µM (inactive) in the assay on MCF7; 31.6 µM (inactive) in the assay with MDA-MB-435; 20.6 µM (inactive) with Malme-3M. The GI50 was 95.9 µM (inactive) in the assay on NCI/ADR-RES; > 100 µM (inactive) in the assay on OVCAR-4; > 100 µM (inactive) with SF-268; > 100 µM (inactive) in the assay with SF-295; 44.5 µM (inactive) in the assay on SF-539; 39.2 µM (inactive) with SK-MEL-28. In addition, the GI50 with TK-10 and in the assay on UACC-257 was > 100 µM (inactive) in each case.
For `CN(C(=O)Cc1ccccc1)n1cn[n+](CC(=O)OC(C)(C)C)c1`, the GI50 in the assay with A498 is > 10 µM (inactive); with COLO 205, > 10 µM (inactive); in the assay on EKVX it was > 10 µM (inactive); in the assay on HCC 2998 it was > 10 µM (inactive); in the assay with HCT-15, > 10 µM; with HOP-62, > 10 µM (inactive). Further, the GI50 in the assay on HOP-92, with Hs-578T, in the assay on LOX IMVI, in the assay on MCF7, with MDA-MB-435 and with Malme-3M was > 10 µM (inactive) in each case. In addition, the GI50 in the assay on NCI/ADR-RES, in the assay on OVCAR-4, in the assay on SF-268, in the assay on SF-295, in the assay with SF-539 and in the assay on SK-MEL-28 was > 10 µM (inactive) each time. For the same compound, the GI50 in the assay on TK-10 and in the assay on UACC-257 was > 10 µM (inactive) throughout.
Take `O=C1C(Br)=C(Br)C(=O)c2ccc(=O)ccc21`: the GI50 was > 100 µM (inactive) in the assay on A498; 13.3 µM (inactive) in the assay with COLO 205; 36.6 µM (inactive) in the assay on EKVX; > 85.1 µM (inactive) in the assay with HCC 2998; 18.7 µM in the assay on HCT-15; 60.1 µM (inactive) in the assay with HOP-62. In addition, the GI50 is 18.5 µM (inactive) in the assay with HOP-92; 26.4 µM (inactive) in the assay with Hs-578T; 20.6 µM (inactive) with LOX IMVI; 18.6 µM (inactive) in the assay on MCF7; 18.7 µM (inactive) in the assay on MDA-MB-435; 19.9 µM (inactive) with Malme-3M. The GI50 with NCI/ADR-RES was 20 µM (inactive); with OVCAR-4 it was 17.5 µM (inactive); with SF-268 it was 30.3 µM (inactive); in the assay with SF-295 it was 33.2 µM (inactive); in the assay with SF-539, 24.7 µM (inactive); in the assay on SK-MEL-28, 27 µM (inactive). The GI50 in the assay with TK-10 is 18.7 µM (inactive); with UACC-257 it was 24.7 µM (inactive).
Turning to `COc1ccc(/N=N/C(=O)NC(CC(C)C)C(N)=O)cc1` (stereo not given), the GI50 was > 31.6 µM (inactive) with A498; 15.3 µM (inactive) in the assay with COLO 205; > 100 µM (inactive) in the assay with EKVX; > 31 µM (inactive) in the assay with HCC 2998; > 24.4 µM with HCT-15; > 100 µM (inactive) in the assay with HOP-62. The GI50 was > 31.6 µM (inactive) in the assay with HOP-92; > 100 µM (inactive) with Hs-578T; 9.48 µM (inactive) with LOX IMVI; 24.3 µM (inactive) with MCF7; 28.2 µM (inactive) in the assay with MDA-MB-435; > 100 µM (inactive) in the assay on Malme-3M. Besides, the GI50 was 55.5 µM (inactive) in the assay on NCI/ADR-RES; > 31.6 µM (inactive) in the assay with OVCAR-4; > 100 µM (inactive) in the assay with SF-268; 5.58 µM (inactive) in the assay with SF-295; 22.9 µM (inactive) with SF-539; > 69 µM (inactive) in the assay on SK-MEL-28. The results for the GI50 in the assay on TK-10 and in the assay on UACC-257 were > 31.6 µM (inactive) and 23.6 µM (inactive), respectively.
On to `CCOC(=O)CC[C@H](NC(=O)[C@H](N)Cc1ccc(N(CCCl)CCCl)cc1)C(=O)OCC`, for which the GI50 is > 100 µM (inactive) with A498; 20.7 µM (inactive) with COLO 205; > 42.6 µM (inactive) with EKVX; 18.3 µM (inactive) in the assay with HCC 2998; 18.1 µM with HCT-15; 21.6 µM (inactive) with HOP-62. Moreover, the GI50 in the assay on HOP-92 was 3.64 µM (inactive); in the assay on Hs-578T it was 22.3 µM (inactive); in the assay on LOX IMVI, 11.6 µM (inactive); with MCF7, 20.6 µM (inactive); in the assay with MDA-MB-435 it was 26.9 µM (inactive); with Malme-3M, 3.61 µM (inactive). Besides, the GI50 in the assay with NCI/ADR-RES was 9.42 µM (inactive); in the assay on OVCAR-4, 13.1 µM (inactive); in the assay with SF-268, 1.43 µM (inactive); in the assay on SF-295 it was 29.2 µM (inactive); in the assay with SF-539 it was 9.66 µM (inactive); with SK-MEL-28, 21.6 µM (inactive). Moreover, the values for the GI50 in the assay on TK-10 and in the assay on UACC-257 were > 54.5 µM (inactive) and 11 µM (inactive), respectively.
